Source: patent US20220177538A1, “CO-AGONISTS AT GLP-1 AND GIP RECEPTORS SUITABLE FOR ORAL DELIVERY” (Novo Nordisk A/S, priority 2020, published 2022)
pEC50: −log10 of the molar value. Read-outs that look alike come from different tables or passages of the source. Marks after values point to notes of the source that are not given here. Starred links: 1 amine or outer side, 2 acyl side, 3 side chain; linkers in the order of their positions; H or OH if unused. Non-standard residues stand in square brackets, D forms with d. Residues, ends and D or L forms follow the SMILES beside them. Groups on a side chain read outwards from the residue. *: point of attachment. C18 diacid = O=C(O)CCCCCCCCCCCCCCCCC(=O)*; γGlu = O=C(O)[C@H](CCC(=O)[*:2])N[*:1]; εLys = N[C@@H](CCCCN[*:1])C(=O)[*:2]; AEEA = NCCOCCOCC(=O)O; Aib = CC(C)(N)C(=O)O

Legend:
human GIP receptor = molecular target: T1, human GIP receptor (Homo sapiens, UniProt P48546); assay: In vitro functional potency, CRE luciferase reporter, whole BHK cells (hGIPR); format: cell-based; conditions: BHK CRE luc2P hGIPR cells
T1 construct: expressed in transfected cells; host or cells: BHK (parent line BHKTS13), clone BHK CRE luc2P hGIPR
T1 sequence (P48546 22-466): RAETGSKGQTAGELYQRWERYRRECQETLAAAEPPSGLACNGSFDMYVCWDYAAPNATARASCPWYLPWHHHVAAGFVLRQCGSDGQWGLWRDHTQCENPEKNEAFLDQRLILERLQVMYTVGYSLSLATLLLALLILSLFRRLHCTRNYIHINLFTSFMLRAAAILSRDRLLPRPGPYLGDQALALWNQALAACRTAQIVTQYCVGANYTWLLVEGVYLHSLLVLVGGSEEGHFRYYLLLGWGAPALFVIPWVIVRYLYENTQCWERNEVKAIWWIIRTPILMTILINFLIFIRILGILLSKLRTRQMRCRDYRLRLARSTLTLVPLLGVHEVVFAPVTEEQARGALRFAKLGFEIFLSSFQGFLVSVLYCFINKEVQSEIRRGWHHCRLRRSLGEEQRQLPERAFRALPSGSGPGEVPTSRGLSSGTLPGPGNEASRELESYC
Summary of the method: (§1)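 Potencies are replicate means (n≥2) from non-linear log(agonist) vs response fits of CRE-driven luminescence. Cells were overnight-plated BHK CRE luc2P lines transfected with human GIPR or GLP-1R, 5000/well.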

[1] = Pharmacokinetic study in dogs after oral dosing of tablets with SNAC; format: in vivo, Beagle dogs; conditions: dog, in vivo, po; for Tmax / half-life: male, Beagle
Description: The purpose of this example is to determine the half-life and plasma exposure in vivo of the compounds of the present invention after p.o. administration to beagle dogs, i.e. the terminal half-life and concentration of test substance that reaches circulation with time. This is done in a pharmacokinetic (PK) study, where these parameters of the compound in question are determined. By terminal half-life is generally meant the period of time it takes to halve a certain plasma concentration, measured after the initial distribution phase.
The amount of SNAC in the tablet composition was 100-300 mg, the amount of magnesium stearate in the tablet composition was 7.7 mg, and the target amount of each test substance in the tablet composition was 3-4 mg.
Male beagle dogs, 1-7 years of age and weighing 9-17 kg during the study period, were included in the study. The dogs were dosed in a fasting state. The dogs were group housed in pens (12 hours light: 12 hours dark), and fed individually and restrictedly once daily with Royal Canin Medium Adult dog food (Royal Canin Products, China Branch, or Brogaarden A/S, Denmark). The dogs were used for repeated PK studies with a suitable wash-out period between successive dosing. An appropriate acclimatization period was given prior to initiation of the first PK study. All handling, dosing, and blood sampling of the animals were performed by trained and skilled staff. Before the studies, the dogs were fasted overnight and from 0 to 4 hours after dosing. The dogs were restricted to water 1 hour before dosing until 4 hours after dosing, but otherwise had ad libitum access to water during the whole period.
The compositions were administered by a single oral dosing to the dogs in groups of 6-8 dogs. […] The mouth was then closed, and 10 mL of tap water was given by syringe or gavage to facilitate swallowing of the tablet.
One blood sample was drawn before dosing, and additional samples were drawn at predefined time points after dosing for up to 240 hours, such as up to 10 hours, to adequately cover the full plasma concentration-time absorption profile of the test substance. For each blood sample time point, approximately 0.8 mL of whole blood was collected in a 1.5 mL EDTA-coated tube, which was gently turned to mix the sample with EDTA. Blood samples were collected in EDTA buffer (8 mM) and then centrifuged at 4° C. 2000 g for 10 minutes. Plasma was pipetted into Micronic tubes on dry ice, and kept at −20° C. or lower until analysis. Blood samples were taken as appropriate, for example from a venflon in the cephalic vein in the front leg for the first 2 hours and then with syringe from the jugular vein for the rest of the time points. The first few drops were allowed to drain from the venflon to avoid heparin saline from the venflon in the sample.
All blood samples were collected into test tubes containing EDTA for stabilisation and kept on ice until centrifugation. Plasma was separated from whole blood by centrifugation and the plasma was stored at −20° C. or lower until analysis.
The plasma was analysed for test substance using LC-MS (Liquid Chromatography-Mass Spectrometry) as known to the person skilled in the art. […] RP-HPLC separation was achieved using a linear gradient of 1:1 acetonitrile/methanol in 1% aqueous formic acid using either: a Phenomenex Onyx Monolithic C18 column (50×2.0 mm) and a flow rate of 0.8 mL/min at 30° C.; or an Agilent Poroshell 120 SB-C18 column (50×2.1 mm, 2.7 μm) at a flow rate of 0.4 mL/min at 60° C. The mass spectrometer was operated in either positive ionization SIM mode or positive ionization PRM mode.
For each individual animal, a plasma concentration-time profile was analysed by a non-compartmental model in Pharsight Phoenix WinNonLin ver.

human GLP-1 receptor = human GLP-1 receptor (Homo sapiens, UniProt P43220); assay: In vitro functional potency, CRE luciferase reporter, whole BHK cells (hGLP-1R); format: cell-based; set-up: expressed in transfected cells; host or cells: BHK (parent line BHKTS13), clone BHK CRE luc2P hGLP-1R; conditions: BHK CRE luc2P hGLP-1R cells
Sequence of human GLP-1 receptor (P43220 24-463): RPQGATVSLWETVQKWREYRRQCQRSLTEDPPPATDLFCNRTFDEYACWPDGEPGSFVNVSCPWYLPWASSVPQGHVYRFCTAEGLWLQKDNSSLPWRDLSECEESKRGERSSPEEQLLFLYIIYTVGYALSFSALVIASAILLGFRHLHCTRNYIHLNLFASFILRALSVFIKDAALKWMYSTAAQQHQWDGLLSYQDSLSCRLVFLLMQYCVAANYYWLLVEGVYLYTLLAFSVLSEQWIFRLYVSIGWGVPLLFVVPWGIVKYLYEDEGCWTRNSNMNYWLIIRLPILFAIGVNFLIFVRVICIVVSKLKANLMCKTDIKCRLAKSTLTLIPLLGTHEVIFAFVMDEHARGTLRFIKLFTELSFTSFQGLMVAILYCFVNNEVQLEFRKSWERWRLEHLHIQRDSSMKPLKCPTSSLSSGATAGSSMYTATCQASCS
Summary of the method: as §1

[2] = 0% HSA, read-out: hGIPR, CRE Luc 0% HSA EC50
[3] = hGIPR, CRE Luc 1% HSA EC50, 1% HSA
[4] = 0% HSA, read-out: hGLP-1R, CRE Luc 0% HSA EC50
[5] = hGLP-1R, CRE Luc 1% HSA EC50, 1% HSA

With CC[C@H](C)[C@H](NC(=O)[C@H](Cc1ccccc1)NC(=O)[C@H](CCC(=O)O)NC(=O)[C@H](Cc1c[nH]cn1)NC(=O)[C@H](C)NC(=O)[C@H](C)NC(=O)[C@H](CCC(N)=O)NC(=O)[C@H](CCCCNC(=O)[C@@H](N)CCCCNC(=O)[C@@H](N)CCCCNC(=O)CC[C@H](NC(=O)CCCCCCCCCCCCCCCCC(=O)O)C(=O)O)NC(=O)[C@H](CCC(=O)O)NC(=O)[C@H](CC(C)C)NC(=O)[C@H](CC(C)C)NC(=O)[C@@H](NC(=O)[C@H](CO)NC(=O)[C@H](Cc1ccc(O)cc1)NC(=O)[C@H](CC(=O)O)NC(=O)[C@H](CO)NC(=O)[C@@H](NC(=O)[C@H](Cc1ccccc1)NC(=O)[C@@H](NC(=O)CNC(=O)[C@H](CCC(=O)O)NC(=O)C(C)(C)NC(=O)[C@@H](N)Cc1ccc(O)cc1)[C@@H](C)O)[C@@H](C)O)[C@@H](C)CC)C(=O)N[C@@H](CC(N)=O)C(=O)N[C@@H](Cc1c[nH]c2ccccc12)C(=O)N[C@@H](CC(C)C)C(=O)N[C@@H](CC(C)C)C(=O)N[C@@H](C)C(=O)NCC(=O)NCC(=O)N1CCC[C@H]1C(=O)N[C@@H](CO)C(=O)N[C@@H](CO)C(=O)NCC(=O)N[C@@H](C)C(=O)N1CCC[C@H]1C(=O)N1CCC[C@H]1C(=O)N1CCC[C@H]1C(=O)N[C@@H](CO)C(=O)O [Compound 26] (H-Y[Aib]EGTFTSDYSILLEK([εLys-εLys-γGlu-C18 diacid])QAAHEFINWLLAGGPSSGAPPPS-OH) the pEC50 (human GIP receptor; [2]) was 11.31, the pEC50 (human GIP receptor; [3]) was 9.82 and the AUC/Dose [1] was 27.4* kg * h/L. The Cmax/Dose [1] was 0.49* kg/L, the Tmax [1] was 1.2 h and the half-life [1] was 70 h. The pEC50 (human GLP-1 receptor; [4]) was 11.13 and the pEC50 (human GLP-1 receptor; [5]) was 9.23.

For CC[C@H](C)[C@H](NC(=O)[C@H](Cc1ccccc1)NC(=O)[C@H](CCC(=O)O)NC(=O)[C@H](Cc1c[nH]cn1)NC(=O)[C@H](C)NC(=O)[C@H](C)NC(=O)[C@H](CCC(N)=O)NC(=O)[C@H](CCCCNC(=O)[C@@H](N)CCCCNC(=O)[C@@H](N)CCCCNC(=O)CC[C@H](NC(=O)CCCCCCCCCCCCCCCCC(=O)O)C(=O)O)NC(=O)[C@H](CCC(=O)O)NC(=O)[C@H](CC(C)C)NC(=O)[C@H](CC(C)C)NC(=O)[C@@H](NC(=O)[C@H](CO)NC(=O)[C@H](Cc1ccc(O)cc1)NC(=O)[C@H](CC(=O)O)NC(=O)[C@H](CO)NC(=O)[C@@H](NC(=O)[C@H](Cc1ccccc1)NC(=O)[C@@H](NC(=O)CNC(=O)[C@H](CCC(=O)O)NC(=O)C(C)(C)NC(=O)[C@@H](N)Cc1ccc(O)cc1)[C@@H](C)O)[C@@H](C)O)[C@@H](C)CC)C(=O)N[C@@H](CCC(=O)O)C(=O)N[C@@H](Cc1c[nH]c2ccccc12)C(=O)N[C@@H](CC(C)C)C(=O)N[C@@H](CC(C)C)C(=O)N[C@@H](C)C(=O)NCC(=O)NCC(=O)N1CCC[C@H]1C(=O)N[C@@H](CO)C(=O)N[C@@H](CO)C(=O)NCC(=O)N[C@@H](C)C(=O)N1CCC[C@H]1C(=O)N1CCC[C@H]1C(=O)N1CCC[C@H]1C(=O)N[C@@H](CO)C(=O)O [Compound 30] (H-Y[Aib]EGTFTSDYSILLEK([εLys-εLys-γGlu-C18 diacid])QAAHEFIEWLLAGGPSSGAPPPS-OH), the pEC50 (human GIP receptor; [2]) was 11.49, the pEC50 (human GIP receptor; [3]) was 9.73 and the AUC/Dose [1] was 6.5 kg·h/L. The Cmax/Dose [1] was 0.24 kg/L, the Tmax [1] was 0.8 h and the half-life [1] was 81 h. It also gave a pEC50 (human GLP-1 receptor; [4]) of 11.14 and a pEC50 (human GLP-1 receptor; [5]) of 9.57.

For CC[C@H](C)[C@H](NC(=O)[C@H](Cc1ccccc1)NC(=O)[C@H](CCC(=O)O)NC(=O)[C@H](CCCNC(=N)N)NC(=O)[C@H](C)NC(=O)[C@H](C)NC(=O)[C@H](CCC(N)=O)NC(=O)[C@H](CCCCNC(=O)COCCOCCNC(=O)COCCOCCNC(=O)CC[C@H](NC(=O)CCCCCCCCCCCCCCCCC(=O)O)C(=O)O)NC(=O)[C@H](CCC(=O)O)NC(=O)[C@H](CC(C)C)NC(=O)[C@H](CC(C)C)NC(=O)[C@@H](NC(=O)[C@H](CO)NC(=O)[C@H](Cc1ccc(O)cc1)NC(=O)[C@H](CC(=O)O)NC(=O)[C@H](CO)NC(=O)[C@@H](NC(=O)[C@H](Cc1ccccc1)NC(=O)[C@@H](NC(=O)CNC(=O)[C@H](CCC(=O)O)NC(=O)C(C)(C)NC(=O)[C@@H](N)Cc1ccc(O)cc1)[C@@H](C)O)[C@@H](C)O)[C@@H](C)CC)C(=O)N[C@@H](CCC(=O)O)C(=O)N[C@@H](Cc1c[nH]c2ccccc12)C(=O)N[C@@H](CC(C)C)C(=O)N[C@@H](CC(C)C)C(=O)N[C@@H](C)C(=O)NCC(=O)NCC(=O)N1CCC[C@H]1C(=O)N[C@@H](CO)C(=O)N[C@@H](CO)C(=O)NCC(=O)N[C@@H](C)C(=O)N1CCC[C@H]1C(=O)N1CCC[C@H]1C(=O)N1CCC[C@H]1C(=O)N[C@@H](CO)C(=O)O [Compound 32] (H-Y[Aib]EGTFTSDYSILLEK([AEEA-AEEA-γGlu-C18 diacid])QAAREFIEWLLAGGPSSGAPPPS-OH), the pEC50 (human GIP receptor; [2]) was 11.15, the pEC50 (human GIP receptor; [3]) was 9.17 and the AUC/Dose [1] was 25.3* kg * h/L. For the same molecule, the Cmax/Dose [1] was 0.45* kg/L, the Tmax [1] was 1.8 h and the half-life [1] was 80 h. The pEC50 (human GLP-1 receptor; [4]) was 11.30 and the pEC50 (human GLP-1 receptor; [5]) was 9.01.

Molecule CC[C@H](C)[C@H](NC(=O)[C@H](Cc1ccccc1)NC(=O)[C@H](CCC(=O)O)NC(=O)[C@H](CCCNC(=N)N)NC(=O)[C@H](C)NC(=O)[C@H](C)NC(=O)[C@H](CCC(N)=O)NC(=O)[C@H](CCC(=O)O)NC(=O)[C@H](CCC(=O)O)NC(=O)[C@H](CC(C)C)NC(=O)[C@H](CC(C)C)NC(=O)[C@H](CCCCNC(=O)[C@@H](N)CCCCNC(=O)[C@@H](N)CCCCNC(=O)CC[C@H](NC(=O)CCCCCCCCCCCCCCCCC(=O)O)C(=O)O)NC(=O)[C@H](CO)NC(=O)[C@H](Cc1ccc(O)cc1)NC(=O)[C@H](CC(=O)O)NC(=O)[C@H](CO)NC(=O)[C@@H](NC(=O)[C@H](Cc1ccccc1)NC(=O)[C@@H](NC(=O)CNC(=O)[C@H](CCC(=O)O)NC(=O)C(C)(C)NC(=O)[C@@H](N)Cc1ccc(O)cc1)[C@@H](C)O)[C@@H](C)O)C(=O)N[C@@H](CCC(=O)O)C(=O)N[C@@H](Cc1c[nH]c2ccccc12)C(=O)N[C@@H](CC(C)C)C(=O)N[C@@H](CC(C)C)C(=O)N[C@@H](C)C(=O)NCC(=O)NCC(=O)N1CCC[C@H]1C(=O)N[C@@H](CO)C(=O)N[C@@H](CO)C(=O)NCC(=O)N[C@@H](C)C(=O)N1CCC[C@H]1C(=O)N1CCC[C@H]1C(=O)N1CCC[C@H]1C(=O)N[C@@H](CO)C(=O)O [Compound 40] has a pEC50 (human GIP receptor; [2]) of 11.02, a pEC50 (human GIP receptor; [3]) of 9.30 and an AUC/Dose [1] of 27.0 kg·h/L. For the same molecule, the Cmax/Dose [1] was 0.48 kg/L, the Tmax [1] was 2 h and the half-life [1] was 61 h. It also gave a pEC50 (human GLP-1 receptor; [4]) of 11.19 and a pEC50 (human GLP-1 receptor; [5]) of 9.48.
